Active and inactive are the calls of the source. No cut-off for these calls is given here.
Key:
THP-1 = assay: Cytotoxicity against human THP1 cells assessed as reduction in cell viability at <50 uM incubated for 24 hrs by CellTiter-Glo luminescent cell viability assay; type: functional, cell-based
MONO-MAC-6 [1] = assay: Cytotoxicity against human MONO-MAC-6 cells assessed as reduction in cell viability at <50 uM incubated for 24 hrs by CellTiter-Glo luminescent cell viability assay; type: functional, cell-based
HL-60 [2] = assay: Cytotoxicity against human HL60 cells assessed as reduction in cell viability at <50 uM incubated for 24 hrs by CellTiter-Glo luminescent cell viability assay; type: functional, cell-based
SW982 [3] = assay: Cytotoxicity against human SW982 cells assessed as reduction in cell viability at <50 uM incubated for 24 hrs by CellTiter-Glo luminescent cell viability assay; type: functional, cell-based
Jurkat [4] = assay: Cytotoxicity against human Jurkat cells assessed as reduction in cell viability at <50 uM incubated for 24 hrs by CellTiter-Glo luminescent cell viability assay; type: functional, cell-based
U-937 [5] = assay: Cytotoxicity against human U937 cells assessed as reduction in cell viability at <50 uM incubated for 24 hrs by CellTiter-Glo luminescent cell viability assay; type: functional, cell-based
MCF7 [6] = assay: Cytotoxicity against human MCF7 cells assessed as reduction in cell viability at <50 uM incubated for 24 hrs by CellTiter-Glo luminescent cell viability assay; type: functional, cell-based
LS174T = assay: Cytotoxicity against human LS174T cells assessed as reduction in cell viability at <50 uM incubated for 24 hrs by CellTiter-Glo luminescent cell viability assay; type: functional, cell-based
A549 = assay: Cytotoxicity against human A549 cells assessed as reduction in cell viability at <50 uM incubated for 24 hrs by CellTiter-Glo luminescent cell viability assay; type: functional, cell-based
PBMC [7] = assay: Cytotoxicity against human PBMC cells assessed as reduction in cell viability at <50 uM incubated for 24 hrs by CellTiter-Glo luminescent cell viability assay; type: cell-based
[8] = biological target: T1, Dual specificity mitogen-activated protein kinase kinase 7 (Homo sapiens) (UniProt O14733); assay: Binding affinity to MKK7 (unknown origin) expressed in HEK293 cells assessed as dissociation constant at <30 uM by kinomescan method; type: cell-based
T1 sequence (whole entry): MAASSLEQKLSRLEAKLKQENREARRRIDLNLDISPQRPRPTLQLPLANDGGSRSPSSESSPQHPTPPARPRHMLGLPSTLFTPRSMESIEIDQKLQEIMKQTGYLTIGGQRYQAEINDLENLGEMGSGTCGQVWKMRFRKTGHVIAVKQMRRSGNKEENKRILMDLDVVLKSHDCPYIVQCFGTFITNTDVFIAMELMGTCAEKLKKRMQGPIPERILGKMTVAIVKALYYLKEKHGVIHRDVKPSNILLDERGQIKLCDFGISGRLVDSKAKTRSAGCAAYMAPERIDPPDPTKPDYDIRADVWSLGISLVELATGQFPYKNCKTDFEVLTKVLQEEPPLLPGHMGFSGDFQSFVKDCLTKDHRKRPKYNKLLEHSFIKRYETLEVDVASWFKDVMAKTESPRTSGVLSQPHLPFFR

[9] = biological target: T2, Neutrophil elastase (Homo sapiens) (UniProt P08246); assay: Inhibition of recombinant HNE (unknown origin) at <50 uM using N-methylsuccinyl-Ala-Ala-Pro-Val-7-amino-4-methylcoumarin, as a substrate measured every 30 sec for 10 mins by fluorometric assay
T2 sequence (whole entry): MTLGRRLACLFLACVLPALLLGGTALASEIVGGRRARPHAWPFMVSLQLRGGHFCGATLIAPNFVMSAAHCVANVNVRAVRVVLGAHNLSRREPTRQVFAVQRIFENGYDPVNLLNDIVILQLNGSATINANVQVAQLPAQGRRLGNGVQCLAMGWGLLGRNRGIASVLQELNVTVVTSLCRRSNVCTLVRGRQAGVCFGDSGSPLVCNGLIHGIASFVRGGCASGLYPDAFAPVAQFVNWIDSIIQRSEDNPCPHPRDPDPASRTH

[10] = biological target: T3, M-phase inducer phosphatase 1 (Homo sapiens, UniProt P30304)
T3 sequence (P30304 whole entry): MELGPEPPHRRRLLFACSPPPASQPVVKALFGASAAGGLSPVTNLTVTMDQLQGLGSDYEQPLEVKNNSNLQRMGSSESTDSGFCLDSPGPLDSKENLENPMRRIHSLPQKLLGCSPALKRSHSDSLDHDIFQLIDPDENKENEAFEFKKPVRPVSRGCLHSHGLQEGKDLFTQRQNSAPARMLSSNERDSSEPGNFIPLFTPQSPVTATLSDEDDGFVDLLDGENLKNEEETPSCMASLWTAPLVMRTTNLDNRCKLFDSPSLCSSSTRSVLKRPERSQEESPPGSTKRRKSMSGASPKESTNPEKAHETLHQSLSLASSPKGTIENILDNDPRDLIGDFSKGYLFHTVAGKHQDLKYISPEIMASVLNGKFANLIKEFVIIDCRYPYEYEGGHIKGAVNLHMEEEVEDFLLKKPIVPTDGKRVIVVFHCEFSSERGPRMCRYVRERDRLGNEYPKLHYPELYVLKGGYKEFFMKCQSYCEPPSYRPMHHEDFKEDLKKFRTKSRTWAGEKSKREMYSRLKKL
Description: Inhibition of recombinant Cdc25A (unknown origin) using OMFP as substrate measured every 30 sec for 10 mins by fluorometric assay

[11] = biological target: T4, M-phase inducer phosphatase 2 (Homo sapiens, UniProt P30305)
T4 sequence (P30305 whole entry): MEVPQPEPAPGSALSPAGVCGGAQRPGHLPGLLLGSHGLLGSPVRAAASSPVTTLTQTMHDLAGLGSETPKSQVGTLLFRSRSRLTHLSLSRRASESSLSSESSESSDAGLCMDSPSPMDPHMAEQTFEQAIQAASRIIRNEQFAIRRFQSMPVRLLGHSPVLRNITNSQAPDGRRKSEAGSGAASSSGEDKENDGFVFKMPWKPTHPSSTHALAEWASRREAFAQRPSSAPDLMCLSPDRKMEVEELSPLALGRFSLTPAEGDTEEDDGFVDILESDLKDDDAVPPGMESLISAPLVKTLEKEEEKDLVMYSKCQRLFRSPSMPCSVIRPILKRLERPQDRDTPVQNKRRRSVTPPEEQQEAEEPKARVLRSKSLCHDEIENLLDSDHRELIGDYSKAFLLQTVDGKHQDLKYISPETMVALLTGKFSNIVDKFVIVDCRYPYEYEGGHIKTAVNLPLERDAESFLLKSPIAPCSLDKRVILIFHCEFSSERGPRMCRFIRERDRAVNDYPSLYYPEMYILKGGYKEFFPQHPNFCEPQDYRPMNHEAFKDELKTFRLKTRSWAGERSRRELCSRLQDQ
Description: Inhibition of recombinant Cdc25B (unknown origin) using OMFP as substrate measured every 30 sec for 10 mins by fluorometric assay

Neutrophil elastase = biological target: T5, Neutrophil elastase (Homo sapiens, UniProt P08246); assay: Inhibition of recombinant HNE (unknown origin) using N-methylsuccinyl-Ala-Ala-Pro-Val-7-amino-4-methylcoumarin, as a substrate measured every 30 sec for 10 mins by fluorometric assay
T5 sequence (P08246 whole entry): T2 sequence (whole entry)

MONO-MAC-6 [12] = assay: Cytotoxicity against human MONO-MAC-6 cells assessed as reduction in cell viability incubated for 24 hrs by CellTiter-Glo luminescent cell viability assay; type: functional, cell-based; settings: MONO-MAC-6, 24 h
HL-60 [13] = assay: Cytotoxicity against human HL60 cells assessed as reduction in cell viability incubated for 24 hrs by CellTiter-Glo luminescent cell viability assay; type: functional, cell-based; settings: HL-60, 24 h
SW982 [14] = assay: Cytotoxicity against human SW982 cells assessed as reduction in cell viability incubated for 24 hrs by CellTiter-Glo luminescent cell viability assay; type: functional, cell-based; settings: SW982, 24 h
U-937 [15] = assay: Cytotoxicity against human U937 cells assessed as reduction in cell viability incubated for 24 hrs by CellTiter-Glo luminescent cell viability assay; type: functional, cell-based; settings: U-937, 24 h
MCF7 [16] = assay: Cytotoxicity against human MCF7 cells assessed as reduction in cell viability incubated for 24 hrs by CellTiter-Glo luminescent cell viability assay; type: functional, cell-based; settings: MCF7, 24 h
PBMC [17] = assay: Cytotoxicity against human PBMC cells assessed as reduction in cell viability incubated for 24 hrs by CellTiter-Glo luminescent cell viability assay; type: cell-based; settings: read-out: IC50
Jurkat [18] = assay: cells; settings: Homo sapiens, 24 h
Description: Cytotoxicity against human Jurkat cells assessed as reduction in cell viability incubated for 24 hrs by CellTiter-Glo luminescent cell viability assay

[19] = biological target: T6, Dual specificity mitogen-activated protein kinase kinase 7 (Homo sapiens, UniProt O14733); assay: biochemical
T6 sequence (O14733 whole entry): T1 sequence (whole entry)
Description: Binding affinity to MKK7 (unknown origin) expressed in HEK293 cells assessed as dissociation constant by kinomescan method

CC(C)=CCC1=C(O)C(=O)c2ccccc2C1=O [LAPACHOL]
Activity (THP-1): inactive | Activity (MONO-MAC-6 [1]): inactive | Activity (HL-60 [2]): inactive | Activity (SW982 [3]): inactive | Activity (Jurkat [4]): inactive | Activity (U-937 [5]): inactive | Activity (MCF7 [6]): inactive | Activity (LS174T): inactive | Activity (A549): inactive | Activity (PBMC [7]): Non-Toxic | Activity [8]: inactive | inhibition [9]: inactive | IC50 [10]: 33.2 µM | IC50 [11]: 42.7 µM

CC(SC1=CC(=O)c2ccccc2C1=O)C(=O)O (stereo not given)
IC50 (Neutrophil elastase): 36.1 µM | IC50 (MONO-MAC-6 [12]): 43.6 µM | IC50 (HL-60 [13]): 20.5 µM | IC50 (SW982 [14]): 21.1 µM | IC50 (U-937 [15]): 34.6 µM | IC50 (MCF7 [16]): 27.9 µM | IC50 (PBMC [17]): 23.8 µM | IC50 [10]: 5.4 µM | IC50 [11]: 5.2 µM | IC50 (Jurkat [18]): 17.9 µM | Kd [19]: 2.1 µM

From ChEMBL document CHEMBL4311981, “Synthesis, anticancer activity, and molecular modeling of 1,4-naphthoquinones that inhibit MKK7 and Cdc25” (Eur J Med Chem, 2019)
